The subject of data set [1] is AIPC. Conditions: mouse; cited from earlier work.
The subject of data set [2] is AIPC. Conditions: human; cited from earlier work.
The test system of data set [3] is tumor cell growth. Conditions: cited from earlier work.
For data set [4] the following is noted: mice; relative to MDV-3100; cited from earlier work.
The conditions of data set [5]: same dose, same solvent; cited from earlier work.
Data set [6] concerns the target T1, AR (Homo sapiens, UniProt P10275).
T1 sequence (P10275 1-920): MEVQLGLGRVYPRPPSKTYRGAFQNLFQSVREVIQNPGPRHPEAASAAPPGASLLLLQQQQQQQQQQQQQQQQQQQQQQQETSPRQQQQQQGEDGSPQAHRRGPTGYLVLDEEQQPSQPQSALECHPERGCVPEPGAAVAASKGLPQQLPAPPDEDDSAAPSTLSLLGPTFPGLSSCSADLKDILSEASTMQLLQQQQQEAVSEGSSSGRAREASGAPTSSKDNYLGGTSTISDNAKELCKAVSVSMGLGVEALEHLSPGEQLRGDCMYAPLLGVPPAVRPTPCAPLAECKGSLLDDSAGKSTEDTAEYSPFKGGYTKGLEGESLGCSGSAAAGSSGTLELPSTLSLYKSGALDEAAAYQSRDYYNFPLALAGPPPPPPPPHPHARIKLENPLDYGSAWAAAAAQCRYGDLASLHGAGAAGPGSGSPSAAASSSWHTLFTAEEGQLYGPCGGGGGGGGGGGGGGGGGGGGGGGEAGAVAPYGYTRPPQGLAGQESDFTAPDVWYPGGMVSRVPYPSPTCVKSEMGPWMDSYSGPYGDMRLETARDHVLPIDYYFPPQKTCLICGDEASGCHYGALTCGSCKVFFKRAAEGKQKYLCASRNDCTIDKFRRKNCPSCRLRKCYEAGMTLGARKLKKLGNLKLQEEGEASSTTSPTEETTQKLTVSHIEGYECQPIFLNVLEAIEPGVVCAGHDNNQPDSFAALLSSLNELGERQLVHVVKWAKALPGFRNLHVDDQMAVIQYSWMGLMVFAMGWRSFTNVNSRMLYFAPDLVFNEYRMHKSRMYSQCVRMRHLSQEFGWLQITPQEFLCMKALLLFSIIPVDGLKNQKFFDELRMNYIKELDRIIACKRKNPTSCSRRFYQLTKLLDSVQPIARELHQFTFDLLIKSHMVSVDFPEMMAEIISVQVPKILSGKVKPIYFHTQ
Conditions: cited from earlier work.

Data set [7] concerns the target T1, AR. The settings on record: cited from earlier work. This is another data set of the same source.
The conditions of data set [8]: same dose, same solvent; cited from earlier work. This is another data set of the same source.
Data set [9] relates to five major subtypes of CYP450. Conditions: all five subtypes; read-out: inhibition half lives on five major subtypes of CYP450; cited from earlier work.
Data set [10] is described as follows: Studies on stability of the compound. The format is physicochemical.
The nature of data set [11]: Solubility of the compound in compositions with conventional auxiliaries. The class given is physicochemical.

Structures are written as SMILES. Where two headings read alike, the source gives them in different places.

As to `CNC(=O)c1ccc(N2C(=S)N(c3ccc(C#N)c(C(F)(F)F)c3)C(=O)C2(C)C)cc1F` [MDV-3100], the “inhibition of growth of AIPC” value in [1] and in [2] was “can inhibit the growth of AIPC” in each case. Further, in data set [3], the “effect of promoting tumor cell growth” value was “no effect of promoting tumor cell growth”.

As to `CC1(C)C(=O)N(c2ccc(C#N)c(C(F)(F)F)c2)C(=S)N1c1ccc(OC[C@@H](O)CO)cc1` [compound of formula (I), (S)-4-(3-(4-(2,3-dihydroxypropoxy)phenyl)-4,4-dimethyl-5-carbonyl-2-thioimidazolin-1-yl)-2-(trifluoromethyl)benzonitrile], in data set [4], the “ratio of the drug concentration in brain tissue to the drug concentration in plasma” value was “much lower than that of MDV-3100”. Besides, in data set [5], the “in vivo exposure in dogs relative to MDV-3100” value is “more than six times that of MDV-3100”. For the same compound, the “activity in vitro relative to MDV-3100” value in [6] was “slightly better than that of MDV-3100”. For the same compound, the AR agonist activity result in [7] (at 3 μM) and in [7] (at 10 μM) was “no AR agonist activity” each time. Besides, the “in vivo exposure in rats relative to MDV-3100” value in [8] is “comparable to that of MDV-3100”. Further, the IC50 in [9] was greater than 50 µM. The “stability of the compound” value in data set [10] is listed as “poor stability”. Moreover, in data set [11], the “solubility in compositions prepared with conventional auxiliaries” value is reported as “poorly soluble”.

Source of the values: patent US10588978B2, “Pharmaceutical composition containing imidazoline derivative” (priority 2016, dated 2020).
